{"source": "patent US5872126A", "about": "“Methods and compositions for treating preterm labor” (priority 1997, dated 1999)", "format_in_all_cases": "in vivo, Sprague-Dawley rat", "key": {"parturition in the rat [1]": {"tested_on": "parturition in the rat", "assay": "Parturition with test compound and progesterone antagonist RU-486 (Example 3)", "conditions": "test compound 20 mg/kg/day (Group 3)", "description": "(§1) In order to determine if the effects in the experiments conducted in Examples 1 and 2 were due to decreased progesterone catabolism associated with inhibition of 5α-reductase by the 5α-reductase type 1 inhibitor 3-oxo-4-aza-4,7β-dimethyl-16β-(4-chlorophenoxy)-5α-androstane (\"test compound\"), the following study was performed with the 5α-reductase inhibitor 3-oxo-4-aza-4,7β-dimethyl-16β-(4-chlorophenoxy)-5α-androstane and the progesterone antagonist RU-486.\n(§2) Fifty-six pregnant female Sprague-Dawley rats (Charles River Laboratories, Raleigh, N.C.), approximately 10.5 weeks old weighing from 212 to 319 grams were employed in the study. They were fed and housed as described in EXAMPLE 1. The females were assigned to the following groups based on a weight independent random allocation scheme:\nControl (Control article)\ntest compound @ 20 mg/kg/day\n(§3) A dose of 10 mg/kg off RU-486 was selected based on the studies of Abdellilah et al., Progesterone and Mifepristone modify principally the response of circular myometrium to oxytocin in preparturient rats: comparison with response to acetylcholine and to calcium J. Pharmacol. and Exp. Therp.\n(§4) The drugs were administered by oral gavage. The control article and vehicle consisted of 0.5% methylcellulose in deionized water with 0.02% sodium lauryl sulfate (SLS) and were prepared on a weekly basis and refrigerated when not in use. The test compound formulation (4 mg/mL, in vehicle) was prepared on a weekly basis and was refrigerated when not in use. The RU-486 formulation (2 mg base compound/mL, in 0.5% methylcellulose in deionized water) was prepared on a daily basis."}, "serum progesterone": {"tested_on": "serum progesterone", "assay": "Serum progesterone in pregnant rats (Example 3)", "conditions": "20 mg/kg/day", "description": "as §1, §2, §3, §4"}, "parturition in the rat [2]": {"tested_on": "parturition in the rat", "assay": "Effect of test compound on parturition in the rat, dosed GD 6 through LD 20 (Example 1)", "conditions": "for Mean Length of Gestation ± SD: oral gavage", "excerpt": "Effect of the 5α-reductase type 1 inhibitor 3-oxo-4-aza-4,7β-dimethyl-16β-(4-chlorophenoxy)-5α-androstane on parturition in the rat\nFifty female Sprague-Dawley rats (Charles River Laboratories, Raleigh, N.C.) approximately 11 weeks old, weighing from 211 to 297 grams were assigned to the present study. The female rats were housed singly in stainless steel hanging cages prior to and after cohabitation with a male of the same strain. During cohabitation, females were caged with untreated males of the same strain in a ratio of 1 female: 1 male. On Gestational Day (GD) 15 to 17, females were transferred to individual clear polycarbonate boxes containing Beta-Chip bedding in preparation for delivery and in which they remained with their litters throughout the lactation period. Room temperature was maintained between 19.4° and 25.0° C.; room humidity was maintained between 40 and 60% relative humidity, and room lights were set for alternating 12-hour periods of light and dark throughout the study. All rats had free access to PMI Certified Rodent Diet #5002 and tap water throughout the study.\nVehicle consisted of 0.5% methylcellulose in deionized water with […] sodium laurel sulfate (SLS) and was prepared on a weekly basis and refrigerated when not in use.\nThe high dose formulation of 3-oxo-4-aza-4,7β-dimethyl-16β-(4-chlorophenoxy)-5α-androstane (\"test compound\") (4 mg/mL, in vehicle) was prepared on a weekly basis and was refrigerated when not in use. All lower does formulations (0.5, 1.0 and 2.0 mg/mL) were prepared on a daily basis by diluting the high dose preparation with the vehicle. Ten females were randomly allocated to each of the following treatment groups: Control, 2.5 mg test compound/kg/day, 5.0 mg test compound/kg/day, 10 mg test compound/kg/day, 20 mg test compound/kg/day. The formulation was administered by oral gavage in a dosage volume of 5 ml/kg based on the most recent body weight. Females were treated once daily with the dose above from GD 6 through LD (lactation day) 20.\nEach female was housed with one untreated male of the same strain. […] The day of finding the plugs and/or sperm was considered GD 0.\nFrom GD21 until the completion of delivery (LD 0), each pregnant female was observed on four occasions throughout the day. On GD 24, females were observed twice at 7:30 am and 10:00 am. The onset and completion of delivery and any signs of difficulty in parturition were noted. Those females that had completed delivery at the first observation of the day were assigned a whole day value for the length of gestation (e.g. 21.0 or 22.0 days). Those females that completed delivery during the workday were assigned a half day value (e.g. 21.5 or 22.5 days)."}}, "note": "Where “and” joins values, the source holds several entries; their conditions need not be identical. Identical values can stand only once. Entries after “also recorded” stand apart in the source; their conditions may differ.", "data": [{"smiles": "C[C@H]1C[C@H]2N(C)C(=O)CC[C@]2(C)[C@H]2CC[C@]3(C)C[C@@H](Oc4ccc(Cl)cc4)C[C@H]3[C@H]12", "note": "[test compound, 3-oxo-4-aza-4,7β-dimethyl-16β-(4-chlorophenoxy)-5α-androstane]", "values": [{"measurement": "number of females completing parturition", "setting": "parturition in the rat [1]; delivery day GD 22.0", "value": 1}, {"measurement": "number of females completing parturition", "setting": "parturition in the rat [1]; delivery day GD 23.0", "value": 2}, {"measurement": "number of females completing parturition", "setting": "parturition in the rat [1]; delivery day GD 24", "value": 3}, {"measurement": "Sacrificed Early (on GD 24 due to failure to initiate or complete parturition)", "setting": "parturition in the rat [1]", "value": 7}, {"measurement": "females that failed to initiate or complete parturition", "setting": "parturition in the rat [1]", "value": "drug related increase in females that failed to initiate or complete parturition"}, {"measurement": "Mean Length of Gestation ± SD", "setting": "parturition in the rat [1]; only females completing delivery, 20 mg/kg/day", "value": "23.3 days and 23.3 ± 0.8 days"}, {"measurement": "mean serum progesterone, times above control group 1", "setting": "serum progesterone; GD 15", "value": "approximately 1.6 times"}, {"measurement": "mean serum progesterone, times above control group 1", "setting": "serum progesterone; GD 17", "value": "~1.4", "unit": "times"}, {"measurement": "mean serum progesterone, times above control group 1", "setting": "serum progesterone; GD 19", "value": "approximately 1.6 times"}, {"measurement": "mean serum progesterone, times above control group 1", "setting": "serum progesterone; GD 21", "value": "~3.3", "unit": "times"}, {"measurement": "correlation of individual serum progesterone values on GD 21 and failure to initiate or complete parturition", "setting": "serum progesterone; Group 3", "value": "positive correlation"}, {"measurement": "number of females completing parturition", "setting": "parturition in the rat [2]; 2.5 mg/kg/day, delivery day GD 22.0", "value": 2}, {"measurement": "number of females completing parturition", "setting": "parturition in the rat [2]; 2.5 mg/kg/day, delivery day GD 22.5", "value": 7}, {"measurement": "Mean Length of Gestation ± SD", "setting": "parturition in the rat [2]; 2.5 mg/kg/day", "value": "22.8 ± 0.4", "unit": "days"}, {"measurement": "Sacrificed GD 24 due to failure to initiate or complete parturition", "setting": "parturition in the rat [2]; 5.0 mg/kg/day", "value": 3}, {"measurement": "number of females completing parturition", "setting": "parturition in the rat [2]; 5.0 mg/kg/day, delivery day GD 22.0", "value": 2}, {"measurement": "number of females completing parturition", "setting": "parturition in the rat [2]; 5.0 mg/kg/day, delivery day GD 22.5", "value": 2}, {"measurement": "number of females completing parturition", "setting": "parturition in the rat [2]; 5.0 mg/kg/day, delivery day GD 23.0", "value": 2}, {"measurement": "Mean Length of Gestation ± SD", "setting": "parturition in the rat [2]; 5.0 mg/kg/day", "value": "22.7 ± 0.7", "unit": "days"}, {"measurement": "Sacrificed GD 24 due to failure to initiate or complete parturition", "setting": "parturition in the rat [2]; 10.0 mg/kg/day", "value": 3}, {"measurement": "number of females completing parturition", "setting": "parturition in the rat [2]; 10.0 mg/kg/day, delivery day GD 22.5", "value": 2}, {"measurement": "number of females completing parturition", "setting": "parturition in the rat [2]; 10.0 mg/kg/day, delivery day GD 23.0", "value": 3}, {"measurement": "Mean Length of Gestation ± SD", "setting": "parturition in the rat [2]; 10.0 mg/kg/day", "value": "22.8 ± 0.3", "unit": "days"}, {"measurement": "Sacrificed GD 24 due to failure to initiate or complete parturition", "setting": "parturition in the rat [2]; 20 mg/kg/day", "value": 6}, {"measurement": "number of females completing parturition", "setting": "parturition in the rat [2]; 20 mg/kg/day, delivery day GD 22.5", "value": 1}, {"measurement": "number of females completing parturition", "setting": "parturition in the rat [2]; 20 mg/kg/day, delivery day GD 23.0", "value": 3}, {"measurement": "Mean Length of Gestation ± SD", "setting": "parturition in the rat [2]; 20 mg/kg/day", "value": "22.9 ± 0.2", "unit": "days"}, {"measurement": "failure to initiate or complete parturition", "setting": "parturition in the rat [2]; 5, 10 and 20 mg/kg/day", "value": "treatment related increases in the failure to initiate or complete parturition; also recorded: drug-related increases in the incidence of females that failed to initiate or complete parturition"}, {"measurement": "length of gestation", "setting": "parturition in the rat [2]; all drug-treated groups, 2.5-20 mg/kg/day", "value": "treatment-related increases in the length of gestation"}]}]}
